# Experimental data published in US20260041640A1 (INCYCLIX BIO, LLC, priority 2023, published 2026).
# Where two headings read alike, the source gives them in different places. Marks after values point to notes of the source that are not given here.
# Experiments:
# [1] = treatment-related AEs, cited from earlier work
# CCNE1-amplified cancers = details: BID dosing; cited from earlier work
# Ovcar-3 = details: BLU-222: based on Ovcar-3 cell cycle data (maximum G1 arrest); read-out: Cellular IC50; cited from earlier work
# [2] = Published human plasma PK of BLU-222 and PF-07104091 (estimated from 2023 ASCO presentations); type: in vivo; details: for Cmax to Cmin Ratio: estimated from published human results
# From the text: This is under the assumption that off-target toxicity is driven by Cmax and efficacy is driven by time above therapeutic threshold (Table 5).
# [3] = cited from earlier work
# CDK2/cyclin E [4] = biological target: T1, CDK2/cyclin E (Homo sapiens, UniProt P24941); details: intracellular; read-out: Nanobret IC50 CDK2/cyclin E; cited from earlier work
# [5] = phase 1/2 trial, advanced solid tumors; cited from earlier work
# CDK2/cyclin E [6] = biological target: T1, CDK2/cyclin E; details: biochemical; read-out: Target IC50 CDK2/cyclin E; cited from earlier work
# [7] = plasma, 400 mg BID, estimated from published graph
# [8] = plasma, 600 mg BID, estimated from published graph
compound,measurement,setting,value
COCc1cc(C(=O)Nc2cc([C@H]3CC[C@@H](OC(=O)NC(C)C)C3)[nH]n2)n(C)n1 [PF-07104091],anemia,[1]; Grade 3,8.6%
same,diarrhea,[1]; Grade 3,8.6%
same,fatigue,[1]; Grade 3,20.0%
same,nausea,[1]; Grade 3,14.3%
same,vomiting,[1]; Grade 3,2.9%
same,anemia,[1]; all grades,45.7%
same,diarrhea,[1]; all grades,48.6%
same,fatigue,[1]; all grades,45.7%
same,nausea,[1]; all grades,77.1%
same,vomiting,[1]; all grades,48.6%
same,In Vivo efficacy (efficacious dose),CCNE1-amplified cancers,≥ 100 mg/kg BID
same,IC50,Ovcar-3,< 100 nM
same,C12 hr (Cmin at 12 hours),"[2]; 300 mg BID, estimated using Cmax of 2000 ng/mL and t1/2 of 2-3 hours",~31-125* ng/mL
same,concentration at 12 h,"[2]; human, 300 mg, read-out: C12 hr (Cmin at 12 hours)",31.2 to 125 ng/mL
same,t1/2,"[3]; human, plasma",2 to 3 h
same,MTD and monotherapy recommended dose for expansion (RDE),[3]; human,300 mg BID
same,Cmax,"[3]; plasma, 300 mg BID, estimated from 2023 ASCO presentation",~2000* ng/mL
FC(F)Oc1cc(Nc2cnc3cnn(CC4CCOCC4)c3n2)n[nH]1 [BLU-222],IC50,CDK2/cyclin E [4],17.7 nM
same,"ocular adverse events (AEs) affecting vision, incidence",[5],19%
same,"ocular adverse events (AEs) affecting vision, patients",[5],5 patients
same,In Vivo efficacy (efficacious dose),CCNE1-amplified cancers,100 mg/kg mg/kg BID
same,IC50,Ovcar-3,> 100 nM
same,Cmax to Cmin Ratio,[2]; 400 mg BID,9.3
same,Cmax to Cmin Ratio,[2]; 600 mg BID,22
same,IC50,CDK2/cyclin E [6],2.6 nM
same,C12 hr,[3]; [7],100* ng/mL
same,Cmax,[3]; [7],927* ng/mL
same,C12 hr,[3]; [8],120* ng/mL
same,Cmax,[3]; [8],2639* ng/mL
